Laboratory results: paper PMC9331544, “Molecular Physicochemical Properties of Selected Pesticides as Predictive Factors for Oxidative Stress and Apoptosis-Dependent Cell Death in Caco-2 and HepG2 Cells” (International Journal of Molecular Sciences, 2022)
Where two headings read alike, the source gives them in different places.

How the values were obtained:
[1] = Alamar Blue cell viability/cytotoxicity assay; assay type: cell-based, human; details: human
Description: (§1) In this study, to assess the cytotoxic activity of GLY, IMD, and IMZ, human epithelial colorectal adenocarcinoma (Caco-2), cell lines service (CLS), (Eppelheim, Germany) and human hepatocellular carcinoma (HepG2) (ATCC, Rockville, Maryland, USA) cells were used. Cells were cultured in complete culture media (Dulbecco’s Modified Eagle Media (DMEM), supplemented with 1 mM L-glutamine, 10% (v/v) foetal bovine serum (FBS), and antibiotics (penicillin at 100 U/mL, and streptomycin at 100 μg/mL)) and maintained at 5% CO2/95% air; 37 °C, controlled humidity, in an incubator. Cells were grown in T25 culture flasks to near confluence. Then, these adherent cells were treated with trypsin (trypsin-EDTA), for detachment and subculture, which was stopped using complete culture medium (1:1, trypsin:culture media) as soon as cells were detached (about 6 and 8 minutes of trypsin treatment for HepG2 and Caco-2 cells, respectively). Detached cells were gently re-suspended with a Pasteur pipette and then a sample was counted using an automated cell counter (TC10™, BIORAD, Portugal). A suspension of cells in fresh culture media, at 5 × 10^4 cells/mL was prepared to seed into 96-well microplates (100 µL/well). After seeding, cells were placed in the incubator for 48 h (to adhere and stabilize) before being used, for other details see [66, 67].
(§2) Cell viability was assessed using the Alamar Blue® (AB) assay, after exposure to the pesticides. In summary, cells seeded into 96-well microplates were subjected to various concentrations of the pesticides (GLY: 0–1 mM; IMD: 0–1 mM; IMZ: 0–0.3 mM). To prepare the test solutions, the appropriate volume of the pesticide stock solution was diluted in FBS-free culture media just before its application to the cells. Stock solution of GLY was prepared in water (at 40 mM), and stock solutions of IMD and IMZ were prepared in DMSO (at 20 mM). After 24 h or 48 h of exposure, the test solutions were removed and the Alamar Blue solution (100 µL/well; 10% (v/v) in FBS-free medium) was immediately added to the cells, followed by a further 5 h incubation. The absorbance was then read at 570 and 620 nm using a microplate reader (Multiskan EX; MTX Lab Systems, Inc., Bradenton, FL, USA) and the percentage of the AB reduction was calculated according to the manufacturer’s instructions, as described before. Cell viability, at each condition, was calculated and expressed as percentage of control cells (non-exposed cells).
(§3) The concentrations needed to reduce cell viability by 50% (IC50) were calculated from three independent experiments (each one performed in quadruplicates), as described.

[2] = test system: Caco-2 cells; assay: Intracellular ROS content, DCFDA, flow cytometry; assay type: cell-based, human; details: for change in ROS content vs control (in words): Caco-2, 24 h, tested concentrations
Description: (§4) To assess pesticides-induced oxidative stress, the intracellular content in reactive oxygen species (ROS), content in glutathione (GSH), and lipid peroxidation was quantified by flow cytometry, following the methods described by Domínguez-Perles, et al. and Queiroz, et al.. Briefly, to assess ROS content, cells re-suspended in PBS (from Section 3.3.1) were centrifuged (5 min, 3000 rpm, bench micro-centrifuge) and, after eliminating the supernatant, 200 μL of 10 µM DCFDA solution (prepared in FBS-free DMEM) was added to each sample. After a 45 min incubation at 37 °C (in the dark, in an incubator), cells were centrifuged to remove excess of probe and re-suspended in PBS. Finally, 5 μL of propidium iodide (PI; 50 μg/mL) was added to each sample 3 min before flow cytometry acquisition.

[3] = test system: HepG2 cells; assay: Intracellular ROS content, DCFDA, flow cytometry; assay type: cell-based, human; details: for change in ROS content vs control (in words): HepG2, 24 h, tested concentrations
Description: as §4

[4] = test system: Caco-2 cells; assay: Glutathione (GSH) content, Mercury Orange, flow cytometry; assay type: cell-based, human; details: Caco-2, 24 h, tested concentrations
Description: (§5) To assess GSH content, cells re-suspended in PBS (see Section 3.3.1) were incubated with 40 μM Mercury Orange (1-(4-chloromercuryphenyl-azo-2-naphtol) for 5 min (in the dark, room temperature), as described by du Plessis, et al..

[5] = test system: HepG2 cells; assay: as above; assay type: cell-based, human; details: HepG2, 24 h, tested concentrations
Description: as §5

[6] = test system: Caco-2 cells; assay: Lipid peroxidation, DHPE-FITC probe, flow cytometry; assay type: cell-based, human
Description: (§6) Lipid peroxidation was evaluated using the DHPE-FITC probe. Cells re-suspended in PBS (see Section 3.3.1) were incubated with 20 μM DHPE-FITC, for 20 min in the dark at room temperature (as describe).

[7] = test system: HepG2 cells; assay: as above; assay type: cell-based, human
Description: as §6

[8] = test system: Caco-2 cells
Text: (§7) Given the role of mitochondria in both oxidative stress and cell death (apoptosis), we evaluated the mitochondrial membrane potential (MMP) using the JC-1 probe (see methods for details). This probe accumulates in the mitochondria in the form of J-aggregates when in normal mitochondrial conditions (polarized) and presents red fluorescence. By contrast, in unhealthy cells, when depolarization occurs, JC-1 enters the mitochondria in lower concentrations forming monomers inducing a fluorescence shift to green fluorescence, thus the loss of MMP is observed through flow cytometry as a reduction in red (FL2) and an increase in green (FL1) fluorescence, or as a reduction in red/green (FL2/FL1) fluorescence ratio [45, 46].
(§8) Pesticide-induced oxidative stress and apoptosis/necrosis events were analysed by flow cytometry. For this, one colour and two-colour flow cytometry assays were performed, using a BD Accuri™ C6 cytometer (Franklin Lakes, NJ, USA) equipment for data acquisition. Each assay was performed at least in triplicate (n = 3) and 5000 gated events were collected from each sample. Data analysis was performed using BD Accuri™ C6 Software, version 1.0.264.21 supplied by Becton Dickinson (Franklin Lakes, NJ, USA).
(§9) Caco-2 and HepG2 cells (handled as described in Section 3.2.1) were seeded in 12-well microplates (at 5 × 10^4 cells/mL density; 750 µL/well), and allowed to adhere and stabilize for 48 h in the incubator. […] Negative control cells (non-exposed cells) were included in each assay. After a 24 h incubation with test solutions, cells were washed with phosphate buffer saline (PBS) solution and then detached from the microplates (as in Section 3.2.1) and placed in centrifuge tubes and centrifuged (5 min, 3000 rpm, bench micro-centrifuge). After eliminating the supernatant, cells were washed in PBS solution through another centrifuge cycle. Then cells were divided before being incubated with the specific markers to assess oxidative stress markers and cell apoptosis/necrosis.
(§10) Mitochondrial membrane potential was analysed using JC-1 probe following the procedures as described by the manufacturer. Caco-2 and HepG2 cells suspended in PBS were centrifuged (5 min, 3000 rpm, bench micro-centrifuge), the supernatant was removed and 200 μL of JC-1 solution (2 μM; diluted in FBS-free culture media) was added to each sample. The samples were incubated for 20 min at 37 °C (in a CO2 incubator) and then analysed by flow cytometry. Negative control, non-exposed, and positive control cells exposed to the protonophore FCCP (5 μM; carbonyl cyanide p-trifluoromethoxyphenylhydrazone) were performed in each set of experiments.

[9] = test system: HepG2 cells; details: for HepG2 FL2/FL1 ratio: mean ± SD
Text: as §7, §8, §9, §10

[10] = test system: L-929 cells (fibroblast cell line); design: method as in PMID 33177931; details: 500 μM, ref [33]; cited from earlier work
[11] = test system: HepG2 cells; design: method as in PMID 34635006; details: HepG2, 500 μM, 24 h; ref [31]; cited from earlier work
[12] = ref [47],[48],[49],[50]; cited from earlier work
[13] = test system: Caco-2 cells; assay: Alamar Blue cell viability/cytotoxicity assay; assay type: cell-based, human; details: mean ± SD (n = 4), read-out: IC50 of pesticide-induced cytotoxicity
Description: as §1, §2, §3

[14] = test system: HepG2 cells; assay: Alamar Blue cell viability/cytotoxicity assay; assay type: cell-based, human; details: mean ± SD (n = 4), read-out: IC50 of pesticide-induced cytotoxicity
Description: as §1, §2, §3

[15] = test system: Caco-2 cells; assay: Apoptosis/necrosis, Annexin-V-FITC/PI double staining, flow cytometry; assay type: cell-based, human; details: Caco-2, 24 h, tested concentrations; listed as GLY
Description: (§11) The samples where then incubated for 20 min at room temperature. After this period, 5 μL of propidium iodide (PI; at 50 μg/mL) solution were added to each sample 3 min before acquisition.

[16] = test system: HepG2 cells; assay: as above; assay type: cell-based, human; details: HepG2, 24 h, tested concentrations; listed as GLY
Description: as §11

[17] = test system: HepG2 cells; details: occupational concentrations; ref [29]; cited from earlier work
[18] = IC50 of pesticide-induced cytotoxicity
[19] = HepG2, FCCP positive control (5 μM)

SMILES: O=[N+]([O-])NC1=NCCN1Cc1ccc(Cl)nc1 [Imidacloprid, imidacloprid]
- IC50 at 24 h [1]: 624 ± 24 µM
- IC50 at 48 h [1]: 620 ± 11 µM
- IC50 at 24 h [1, 18]: > 1000 µM
- IC50 at 48 h [1, 18]: 832 ± 30 µM
- increase in ROS content compared with control ([2]; Caco-2, 750 μM, 24 h): 1.42 fold
- change in ROS content vs control (in words) ([2]; listed as IMD): significant (p < 0.05) increase in ROS content
- increase in ROS content compared with control ([3]; HepG2, 500 μM, 24 h): 1.59 fold
- change in ROS content vs control (in words) ([3]; listed as IMD): significant (p < 0.05) increase in ROS content
- change in GSH content vs control (in words) [4]: increased GSH levels
- change in GSH content vs control (in words) [5]: increased GSH levels
- lipid peroxidation (LP) vs control (in words) [6]: induced significant LP
- lipid peroxidation (LP) vs control (in words) [7]: not statistically significant
- FL2/FL1 ratio reduction (% of control) ([8]; Caco-2, 500 μM, 24 h): 21.36±0.05 % of control
- FL2/FL1 ratio reduction (% of control) ([8]; Caco-2, 750 μM, 24 h): 17.70±2.49 % of control
- change in mitochondrial membrane potential (in words) [9]: Depolarized MMP
- FL2/FL1 ratio reduction (% of control) ([9]; HepG2, 100 μM, 24 h): 23.79±1.79 % of control
- HepG2 FL2/FL1 ratio ([9]; HepG2, 100 μM, 24 h): 0.17±0.01
- FL2/FL1 ratio reduction (% of control) ([9]; HepG2, 250 μM, 24 h): 27.49±1.48 % of control
- HepG2 FL2/FL1 ratio ([9]; HepG2, 250 μM, 24 h): 0.16±0.02
- FL2/FL1 ratio reduction (% of control) ([9]; HepG2, 500 μM, 24 h): 19.93±1.29 % of control
- HepG2 FL2/FL1 ratio ([9]; HepG2, 500 μM, 24 h): 0.18±0.01
- LDH release increase [10]: 50%
- ROS content (in words) [11]: doubled ROS content
- H-bond (donor count) [12]: 1
- H-donor (acceptor count) [12]: 4

SMILES: O=C(O)CNCP(=O)(O)O [Glyphosate, N-phosphonomethyl-glycine]
- IC50 at 24 h ([1]; Caco-2, 24 h, read-out: IC50 (cytotoxicity)): > 1000 µM
- IC50 at 48 h ([1]; Caco-2, 48 h, read-out: IC50 (cytotoxicity)): > 1000 µM
- IC50 at 24 h ([1]; HepG2, 24 h, read-out: IC50 (cytotoxicity)): > 1000 µM
- IC50 at 48 h ([1]; HepG2, 48 h, read-out: IC50 (cytotoxicity)): > 1000 µM
- IC50 ([13]; Caco-2, 24 h exposure): > 1000 µM
- IC50 ([13]; Caco-2, 48 h exposure): > 1000 µM
- IC50 ([14]; HepG2, 24 h exposure): > 1000 µM
- IC50 ([14]; HepG2, 48 h exposure): > 1000 µM
- change in ROS content vs control (in words) ([2]; listed as GLY): control-like ROS levels
- change in ROS content vs control (in words) ([3]; listed as GLY): control-like ROS levels
- change in GSH content vs control (in words) [4]: did not show GSH levels different from control cells
- change in GSH content vs control (in words) [5]: initial decrease in GSH content
- lipid peroxidation (LP) vs control (in words) ([6]; Caco-2, 24 h, tested concentrations): did not produce significant LP
- lipid peroxidation (LP) vs control (in words) ([7]; HepG2, 24 h, tested concentrations): did not produce significant LP
- change in mitochondrial membrane potential (in words) ([8]; Caco-2, 24 h, tested concentrations, listed as GLY): did not induce significant changes on MMP
- apoptosis/necrosis induction (in words) [15]: did not produce significant changes
- apoptosis/necrosis induction (in words) [16]: did not induce significant changes on cell population distribution
- HepG2 cell viability (in words) [17]: no reduction in HepG2 cell viability

SMILES: N#CC(C#N)=NNc1ccc(OC(F)(F)F)cc1 [FCCP, carbonyl cyanide p-trifluoromethoxyphenylhydrazone, reference compound]
- FL2/FL1 ratio reduction (% of control) ([8]; Caco-2, FCCP positive control (5 μM)): 93.04±0.93 % of control
- Caco-2 FL2/FL1 ratio ([8]; Caco-2, FCCP positive control (5 μM), mean ± SD): 0.06±0.02
- FL2/FL1 ratio reduction (% of control) [9, 19]: 79.87±4.12 % of control
- HepG2 FL2/FL1 ratio [9, 19]: 0.04±0.01
